Laboratory results reported in patent publication US4479943A, “3-Demethoxyistamycin B, the 2"-N-formimidoyl derivative thereof and pharmaceutical composition containing same” (Zaidan Hojin Biseibutsu Kagaku Kenkyu Kai, priority 1982, dated 1984).
Values after ≈ are worked out from the molar mass of the structure shown.

Key:
[1] = system: Mycobacterium smegmatis ATCC 607; assay: Antibacterial MIC, standard serial dilution; type: cell-based; details: nutrient agar, 37° C., 17 hours, as free base
[2] = system: Staphylococcus aureus Ap01; assay: Antibacterial MIC, standard serial dilution; type: cell-based; details: nutrient agar, 37° C., 17 hours, as free base
[3] = system: Pseudomonas aeruginosa TI-13; assay: Antibacterial MIC, standard serial dilution; type: cell-based; details: nutrient agar, 37° C., 17 hours, as free base
Providencia sp. Pv16 = assay: Antibacterial MIC, standard serial dilution; type: cell-based; details: nutrient agar, 37° C., 17 hours, as free base
[4] = system: Salmonella enteritidis 1891; assay: Antibacterial MIC, standard serial dilution; type: cell-based; details: nutrient agar, 37° C., 17 hours, as free base
Bacillus anthracis = type: cell-based; details: nutrient agar, 37° C., 17 hours, as free base
[5] = system: Bacillus subtilis NRRL B-558; assay: Antibacterial MIC, standard serial dilution; type: cell-based; details: nutrient agar, 37° C., 17 hours, as free base
[6] = system: Pseudomonas aeruginosa H9; assay: Antibacterial MIC, standard serial dilution; type: cell-based; details: nutrient agar, 37° C., 17 hours, as free base
Escherichia coli JR225 = assay: Antibacterial MIC, standard serial dilution; type: cell-based; details: nutrient agar, 37° C., 17 hours, as free base
[7] = system: Klebsiella pneumoniae 22#3038; assay: Antibacterial MIC, standard serial dilution; type: cell-based; details: nutrient agar, 37° C., 17 hours, as free base
[8] = system: Pseudomonas aeruginosa No. 12; assay: Antibacterial MIC, standard serial dilution; type: cell-based; details: nutrient agar, 37° C., 17 hours, as free base
[9] = system: Pseudomonas aeruginosa GN315; assay: Antibacterial MIC, standard serial dilution; type: cell-based; details: nutrient agar, 37° C., 17 hours, as free base
Proteus rettgeri GN466 = assay: Antibacterial MIC, standard serial dilution; type: cell-based; details: nutrient agar, 37° C., 17 hours, as free base
[10] = system: Pseudomonas aeruginosa 99; assay: Antibacterial MIC, standard serial dilution; type: cell-based; details: nutrient agar, 37° C., 17 hours, as free base
Salmonella typhi T-63 = assay: Antibacterial MIC, standard serial dilution; type: cell-based; details: nutrient agar, 37° C., 17 hours, as free base
[11] = system: Escherichia coli JR66/W677; assay: Antibacterial MIC, standard serial dilution; type: cell-based; details: nutrient agar, 37° C., 17 hours, as free base
[12] = system: Staphylococcus epidermidis 109; assay: Antibacterial MIC, standard serial dilution; type: cell-based; details: nutrient agar, 37° C., 17 hours, as free base
[13] = system: Pseudomonas aeruginosa PST1; assay: Antibacterial MIC, standard serial dilution; type: cell-based; details: nutrient agar, 37° C., 17 hours, as free base
[14] = system: Pseudomonas maltophilia GN 907; assay: Antibacterial MIC, standard serial dilution; type: cell-based; details: nutrient agar, 37° C., 17 hours, as free base
Escherichia coli NIHJ = assay: Antibacterial MIC, standard serial dilution; type: cell-based; details: nutrient agar, 37° C., 17 hours, as free base
[15] = system: Pseudomonas aeruginosa B-13; assay: Antibacterial MIC, standard serial dilution; type: cell-based; details: nutrient agar, 37° C., 17 hours, as free base
[16] = system: Micrococcus flavus FDA 16; assay: Antibacterial MIC, standard serial dilution; type: cell-based; details: nutrient agar, 37° C., 17 hours, as free base
[17] = system: Escherichia coli K-12 ML1629; assay: Antibacterial MIC, standard serial dilution; type: cell-based; details: nutrient agar, 37° C., 17 hours, as free base
[18] = system: Bacillus cereus ATCC 10702; assay: Antibacterial MIC, standard serial dilution; type: cell-based; details: nutrient agar, 37° C., 17 hours, as free base
Providencia sp. 2991 = assay: Antibacterial MIC, standard serial dilution; type: cell-based; details: nutrient agar, 37° C., 17 hours, as free base
[19] = system: Escherichia coli K-12 ML1630; assay: Antibacterial MIC, standard serial dilution; type: cell-based; details: nutrient agar, 37° C., 17 hours, as free base
[20] = system: Pseudomonas aeruginosa 21-75; assay: Antibacterial MIC, standard serial dilution; type: cell-based; details: nutrient agar, 37° C., 17 hours, as free base
[21] = system: Bacillus subtilis PCI 219; assay: Antibacterial MIC, standard serial dilution; type: cell-based; details: nutrient agar, 37° C., 17 hours, as free base
[22] = system: Escherichia coli K-12 ML1410; assay: Antibacterial MIC, standard serial dilution; type: cell-based; details: nutrient agar, 37° C., 17 hours, as free base
[23] = system: Escherichia coli K-12 LA290 R55; assay: Antibacterial MIC, standard serial dilution; type: cell-based; details: nutrient agar, 37° C., 17 hours, as free base
Sarcina lutea PCI 1001 = assay: Antibacterial MIC, standard serial dilution; type: cell-based; details: nutrient agar, 37° C., 17 hours, as free base
Proteus vulgaris 0X19 = assay: Antibacterial MIC, standard serial dilution; type: cell-based; details: nutrient agar, 37° C., 17 hours, as free base
[24] = system: Escherichia coli K-12 LA290 R56; assay: Antibacterial MIC, standard serial dilution; type: cell-based; details: nutrient agar, 37° C., 17 hours, as free base
Proteus rettgeri GN311 = assay: Antibacterial MIC, standard serial dilution; type: cell-based; details: nutrient agar, 37° C., 17 hours, as free base
Escherichia coli K-12 R5 = assay: Antibacterial MIC, standard serial dilution; type: cell-based; details: nutrient agar, 37° C., 17 hours, as free base
[25] = system: Escherichia coli K-12 J5R11-2; assay: Antibacterial MIC, standard serial dilution; type: cell-based; details: nutrient agar, 37° C., 17 hours, as free base
[26] = system: Corynebacterium bovis 1810; assay: Antibacterial MIC, standard serial dilution; type: cell-based; details: nutrient agar, 37° C., 17 hours, as free base
[27] = system: Shigella dysenteriae JS11910; assay: Antibacterial MIC, standard serial dilution; type: cell-based; details: nutrient agar, 37° C., 17 hours, as free base
[28] = system: Pseudomonas aeruginosa ROS 134/PU21; assay: Antibacterial MIC, standard serial dilution; type: cell-based; details: nutrient agar, 37° C., 17 hours, as free base
[29] = system: Klebsiella pneumoniae PCI602; assay: Antibacterial MIC, standard serial dilution; type: cell-based; details: nutrient agar, 37° C., 17 hours, as free base
[30] = system: Staphylococcus aureus FDA 209P; assay: Antibacterial MIC, standard serial dilution; type: cell-based; details: nutrient agar, 37° C., 17 hours, as free base
Escherichia coli W677 = assay: Antibacterial MIC, standard serial dilution; type: cell-based; details: nutrient agar, 37° C., 17 hours, as free base
Serratia marcescens = assay: Antibacterial MIC, standard serial dilution; type: cell-based; details: nutrient agar, 37° C., 17 hours, as free base
[31] = system: Pseudomonas aeruginosa H11; assay: Antibacterial MIC, standard serial dilution; type: cell-based; details: nutrient agar, 37° C., 17 hours, as free base
bacteria = details: in words; earlier work; cited from earlier work
[32] = system: Escherichia coli K-12 R388; assay: Antibacterial MIC, standard serial dilution; type: cell-based; details: nutrient agar, 37° C., 17 hours, as free base
[33] = system: Pseudomonas aeruginosa A3; assay: Antibacterial MIC, standard serial dilution; type: cell-based; details: nutrient agar, 37° C., 17 hours, as free base
Serratia sp. SOU = assay: Antibacterial MIC, standard serial dilution; type: cell-based; details: nutrient agar, 37° C., 17 hours, as free base
[34] = system: Pseudomonas aeruginosa K-Ps 102; assay: Antibacterial MIC, standard serial dilution; type: cell-based; details: nutrient agar, 37° C., 17 hours, as free base
Escherichia coli K-12 = assay: Antibacterial MIC, standard serial dilution; type: cell-based; details: nutrient agar, 37° C., 17 hours, as free base
Serratia sp. 4 = assay: Antibacterial MIC, standard serial dilution; type: cell-based; details: nutrient agar, 37° C., 17 hours, as free base
[35] = system: Staphylococcus aureus Smith; assay: Antibacterial MIC, standard serial dilution; type: cell-based; details: nutrient agar, 37° C., 17 hours, as free base

In the case of `CNCC1CCC(N)C(OC2C(N)CC(O)C(N(C)C(=O)CNC=N)C2O)O1` (stereo not shown) [Demethyl formimidoyl ista B, 3-O-demethyl-2"-N-formimidoylistamycin B], the MIC [1] is reported as 0.39 µg/mL (≈ 0.969 µM), the MIC [2] is reported as 0.39 µg/mL (≈ 0.969 µM) and the MIC [3] is reported as 12.5 µg/mL (≈ 31.1 µM). The MIC (Providencia sp. Pv16) was 0.78 µg/mL (≈ 1.94 µM), the MIC [4] was 1.56 µg/mL (≈ 3.88 µM) and the MIC (Bacillus anthracis) was 0.39 µg/mL (≈ 0.969 µM). For the same compound, the MIC [5] was < 0.20 µg/mL, the MIC [6] was 12.5 µg/mL (≈ 31.1 µM) and the MIC (Escherichia coli JR225) was 0.39 µg/mL (≈ 0.969 µM). It also gave an MIC [7] of 1.56 µg/mL (≈ 3.88 µM), an MIC [8] of 12.5 µg/mL (≈ 31.1 µM) and an MIC [9] of 6.25 µg/mL (≈ 15.5 µM). For the same compound, the MIC (Proteus rettgeri GN466) was 0.39 µg/mL (≈ 0.969 µM), the MIC [10] was 100 µg/mL (≈ 248 µM) and the MIC (Salmonella typhi T-63) was < 0.20 µg/mL. The MIC [11] was 1.56 µg/mL (≈ 3.88 µM), the MIC [12] was 0.20 µg/mL (≈ 0.497 µM) and the MIC [13] was 25 µg/mL (≈ 62.1 µM). The MIC [14] was > 100 µg/mL, the MIC (Escherichia coli NIHJ) was 0.39 µg/mL (≈ 0.969 µM) and the MIC [15] was 100 µg/mL (≈ 248 µM). It also gave an MIC [16] of 0.39 µg/mL (≈ 0.969 µM), an MIC [17] of 0.78 µg/mL (≈ 1.94 µM) and an MIC [18] of 0.78 µg/mL (≈ 1.94 µM). It also gave an MIC (Providencia sp. 2991) of 0.78 µg/mL (≈ 1.94 µM), an MIC [19] of 1.56 µg/mL (≈ 3.88 µM) and an MIC [20] of 25 µg/mL (≈ 62.1 µM). For the same compound, the MIC [21] was 0.20 µg/mL (≈ 0.497 µM), the MIC [22] was 1.56 µg/mL (≈ 3.88 µM) and the MIC [23] was 0.78 µg/mL (≈ 1.94 µM). For the same compound, the MIC (Sarcina lutea PCI 1001) was 0.39 µg/mL (≈ 0.969 µM), the MIC (Proteus vulgaris 0X19) was 0.39 µg/mL (≈ 0.969 µM) and the MIC [24] was 0.78 µg/mL (≈ 1.94 µM). The MIC (Proteus rettgeri GN311) was 0.39 µg/mL (≈ 0.969 µM), the MIC (Escherichia coli K-12 R5) was 0.78 µg/mL (≈ 1.94 µM) and the MIC [25] was 1.56 µg/mL (≈ 3.88 µM). For the same compound, the MIC [26] was < 0.20 µg/mL, the MIC [27] was 1.56 µg/mL (≈ 3.88 µM) and the MIC [28] was 100 µg/mL (≈ 248 µM). For the same compound, the MIC [29] was 0.78 µg/mL (≈ 1.94 µM), the MIC [30] was 0.39 µg/mL (≈ 0.969 µM) and the MIC (Escherichia coli W677) was 0.39 µg/mL (≈ 0.969 µM). The MIC (Serratia marcescens) was 1.56 µg/mL (≈ 3.88 µM), the MIC [31] was 25 µg/mL (≈ 62.1 µM) and the antibacterial activity (bacteria) was “active not only against Pseudomonas aeruginosa but also against a variety of resistant bacteria”. For the same compound, the MIC [32] was 0.78 µg/mL (≈ 1.94 µM), the MIC [33] was 0.20 µg/mL (≈ 0.497 µM) and the MIC (Serratia sp. SOU) was 12.5 µg/mL (≈ 31.1 µM). For the same compound, the MIC [34] was 12.5 µg/mL (≈ 31.1 µM), the MIC (Escherichia coli K-12) was 0.78 µg/mL (≈ 1.94 µM) and the MIC (Serratia sp. 4) was 12.5 µg/mL (≈ 31.1 µM). The MIC [35] was < 0.20 µg/mL.
